Our source for the IC50 values is US5814631A, “Quinazoline derivatives and applications thereof” (Suntory Limited, priority 1995, dated 1998).

pIC50: −log10 of the molar value.

The target of assay [1] is T1, human neutrophil derived cathepsin G (Homo sapiens, UniProt P08311).
T1 sequence (P08311 21-244 limits assumed): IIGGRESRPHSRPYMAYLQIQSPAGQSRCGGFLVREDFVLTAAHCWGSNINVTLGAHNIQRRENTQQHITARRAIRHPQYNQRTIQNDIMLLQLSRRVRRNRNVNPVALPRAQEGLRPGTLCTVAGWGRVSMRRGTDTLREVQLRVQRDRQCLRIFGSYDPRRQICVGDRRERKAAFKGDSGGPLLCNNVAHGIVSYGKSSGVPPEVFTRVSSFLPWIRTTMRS
Nature of the assay: Measurement of cathepsin G inhibitive activity (conversion of Ang I to Ang II, HPLC). Format: biochemical. To be noted: Ang I substrate, 37° C., 30 min, pH 7.5.

The target in assay [2] is T2, bovine pancreatic α-chymotrypsin (Bos taurus, UniProt P00766).
T2 construct: purchased Sigma Co. Type II; host or cells: bovine pancreas
Nature of the assay: Measurement of chymotrypsin inhibitive activity (Ang I, HPLC). Format: biochemical. To be noted: bovine pancreatic α-chymotrypsin; Ang I substrate; 37° C., 15 min; pH 7.5.

The target in another assay is T3, human heart chymase (Homo sapiens, UniProt P23946).
T3 sequence (P23946 22-247): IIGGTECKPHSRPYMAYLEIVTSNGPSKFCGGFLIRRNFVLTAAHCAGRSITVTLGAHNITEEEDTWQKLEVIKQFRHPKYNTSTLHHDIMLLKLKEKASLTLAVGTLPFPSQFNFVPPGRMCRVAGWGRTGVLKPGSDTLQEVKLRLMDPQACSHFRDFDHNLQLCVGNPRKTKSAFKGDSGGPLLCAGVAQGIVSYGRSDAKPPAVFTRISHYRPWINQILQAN
The experiment in a line: biochemical. To be noted: Chymase inhibitive activity (IC50), Ang I substrate, 37° C., 30 min, pH 7.5.

Description for human heart chymase: That is, to 10 μl of a 20 mM trisphosphate buffer (pH 7.5) containing 2MKCl were added 10 μl of purified chymase and 5 μl of a dimethylsulfoxide (hereinafter referred to as DMSO) solution of the test sample. The mixture was preincubated at 37° C. for 10 minutes, then 25 μl of a 1 mM Ang I solution was added and the mixture preincubated at 37° C. for 30 minutes. Next, 50 μl of 30% acetic acid was added to stop the enzymatic reaction. At the same time, a blind test was performed by adding, instead of the test sample solution, 5 μl of DMSO and performing the same reaction.
The reacted solution was subjected to high performance liquid chromatography using Develosil ODS-5 (made by Nomura Kagaku, .phi.4.6 mm×150 mm) and developed at a flow rate of 2.0 ml/min in 0.05% TFA by a straight concentration gradient raising the acetonitrile from 0% to 60% over 10 minutes. This was monitored by the absorbance at 210 nm and the peaks identified by comparison with standard samples of Ang I and Ang II. The peak areas were measured by an integrating meter to quantitatively analyze the Ang I and Ang II and calculate the chymase activity.

What is called pIC50 is the IC50 on a negative log10 scale, so that one unit is a factor of ten. Read a high pIC50 as a low IC50. For the compound `O=C(O)c1ccc(S(=O)(=O)n2c(=O)[nH]c3cc(Cl)ccc3c2=O)cc1`, the figures for the pIC50 (in assay [1]; in assay [2]; at human heart chymase) were 6.24, 4.60 and 5.51, respectively.

On to `Cc1ccc2[nH]c(=O)n(S(=O)(=O)c3ccc(Cl)cc3)c(=O)c2c1` [Example 3], for which the figures for the pIC50 (in assay [1]; in assay [2]; on human heart chymase) were 4.19, 5.46 and 5.41, respectively.

Regarding `C=CCOC(=O)c1ccc(S(=O)(=O)n2c(=O)[nH]c3cc(Cl)ccc3c2=O)cc1` [Example 5, 3-(4-allyloxycarbonylbenzenesulfonyl)-7-chloro-2,4(1H,3H)-quinazolinedione], the pIC50 is 6.47 in assay [1] and 5.70 in assay [2].

Regarding `COc1cccc2c(=O)n(S(=O)(=O)c3ccc(Cl)cc3)c(=O)[nH]c12` [Example 7, 3-(4-chlorobenzenesulfonyl)-8-methoxy-2,4(1H,3H)-quinazolinedione], the pIC50 in assay [1] was 5.49; in assay [2], 5.72; at human heart chymase, 4.64.

Regarding `Cc1ccc(S(=O)(=O)n2c(=O)[nH]c3cc(Cl)ccc3c2=O)cc1C` [Example 9, 7-chloro-3-(3,4-dimethylbenzenesulfonyl)-2,4(1H,3H)-quinazolinedione], the pIC50 is 6.32 in assay [1], 5.60 in assay [2] and 5.80 against human heart chymase.

Consider `O=c1[nH]c2cc(Cl)ccc2c(=O)n1S(=O)(=O)c1ccccc1` [Example 11, 7-chloro-3-benzenesulfonyl-2,4 3(1H,3H)-quinazolinedione], for which the pIC50 in assay [1] is 6.60; in assay [2], 5.52; against human heart chymase, 6.14.

On to `O=c1[nH]c2cc(Cl)ccc2c(=O)n1S(=O)(=O)c1ccc([N+](=O)[O-])cc1` [Example 13, 7-chloro-3-(4-nitrobenzenesulfonyl)-2,4(1H,3H)-quinazolinedione], for which the figures for the negative logarithm of the IC50 (pIC50) (in assay [1]; in assay [2]; on human heart chymase) were 7.47, 6.62 and 6.07, respectively.

Turning to `O=C(O)c1cccc(S(=O)(=O)n2c(=O)[nH]c3cc(Cl)ccc3c2=O)c1` [Example 15, 3-(3-carboxybenzenesulfonyl)-7-chloro-2,4(1H,3H)-quinazolinedione], the results for the pIC50 (in assay [1]; in assay [2]; on human heart chymase) were 6.10, 5.32 and 5.62, respectively.

Consider `COC(=O)c1ccc(S(=O)(=O)n2c(=O)[nH]c3cc(Cl)ccc3c2=O)cc1` [Example 19, 7-chloro-3-(4-methoxycarbonylbenzenesulfonyl)-2,4(1H,3H)-quinazolinedione], for which the pIC50 is 6.80 in assay [1], 6.40 in assay [2] and 6.70 against human heart chymase.

On to `Cc1cc2[nH]c(=O)n(S(=O)(=O)c3ccc(Cl)cc3)c(=O)c2cc1C` [Example 21, 3-(4-chlorobenzenesulfonyl)-6,7-dimethyl-2,4(1H,3H)-quinazolinedione], for which the values for the negative-log IC50 (pIC50) (in assay [1]; in assay [2]; against human heart chymase) were 4.43, 5.07 and 4.52, respectively.

Regarding `O=c1[nH]c2ccccc2c(=O)n1S(=O)(=O)c1ccc(Cl)cc1` [Example 23, 3-(4-chlorobenzenesulfonyl)-2,4(1H,3H)-quinazolinedione], the pIC50 in assay [1] is 5.42; in assay [2], 4.92; against human heart chymase, 5.80.

Turning to `O=c1[nH]c2cc3ccccc3cc2c(=O)n1S(=O)(=O)c1ccc(Cl)cc1` [Example 35, 3-(4chlorobenzenesulfonyl)-2,4(1H,3H)-benzo[g]quinazolinedione], the pIC50 in assay [2] is 5.85; against human heart chymase, 5.62.

As for `Cc1ccc(S(=O)(=O)n2c(=O)c3ccc(Cl)cc3n(CC(=O)Nc3cccnc3)c2=O)cc1` [Example 94, [7-chloro-3-(4-methylbenzenesulfonyl)-2,4(1H,3H)-quinazolinedion-1-yl]-N-(3-pyridyl)acetamide], at human heart chymase, the pIC50 is 6.77.

Regarding `CC[n+]1cccc(NC(=O)Cn2c(=O)n(S(=O)(=O)c3ccc(C)cc3)c(=O)c3ccc(Cl)cc32)c1` [Example 95, 3-{7-chloro-[3-(4-methylbenzene-sulfonyl)-3-(4-methoxybenzenesulfonyl)-2,4(1H,3H)-quinazolinedion-1-yl]acetylamino}-N-ethylpyridinium iodide], the pIC50 on human heart chymase was 6.68.

`N[C@@H](Cc1ccc(NC(=O)Cn2c(=O)n(S(=O)(=O)c3ccc(Cl)cc3)c(=O)c3ccc(Cl)cc32)cc1)C(=O)O` [Example 99, [7-chloro-3-(4-chlorobenzenesulfonyl)-2,4(1H,3H)-quinazolinedion-1-yl]-N-(4-L-phenylalaninyl)acetamide] showed a pIC50 against human heart chymase of 6.68.

Turning to `O=C(Cn1c(=O)n(S(=O)(=O)c2ccc(Cl)cc2)c(=O)c2ccc(Cl)cc21)Nc1ccc(C(=O)O)cc1C(=O)O` [Example 101, [7-chloro-3-(4-chlorobenzenesulfonyl)-2,4 (1H,3H)-quinazolinedion-1-yl]-N-(2,4-dicarboxylphenyl)acetamide], the pIC50 at human heart chymase was 6.55.

`Cn1ccc(S(=O)(=O)n2c(=O)c3ccc(Cl)cc3n(CC(=O)Nc3cccnc3)c2=O)c1` [Example 103, [7-chloro-3-(1-methylpyrrole-3-sulfonyl)-2,4(1H,3H)-quinazolinedion-1-yl]-N-(3-pyridyl)acetamide] showed a negative-log IC50 (pIC50) against human heart chymase of 5.34.

`O=C(Cn1c(=O)n(S(=O)(=O)c2ccc(Cl)cc2)c(=O)c2ccc(Cl)cc21)Nc1cccc(OP(=O)(O)O)c1` [Example 105] gave a pIC50 at human heart chymase of 7.60.

`N=C(N)Nc1ccc(Cn2c(=O)n(S(=O)(=O)c3ccc(Cl)cc3)c(=O)c3ccc(Cl)cc32)cc1` [Example 107, 7-chloro-3-(4-chlorobenzenesulfonyl)-1-(4-guanidinobenzyl)-2,4(1H,3H)-quinazolinedione]: the pIC50 on human heart chymase was 6.64.

In the case of `O=C(Cn1c(=O)n(S(=O)(=O)c2ccc(Cl)cc2)c(=O)c2ccc(Cl)cc21)c1ccccc1` [Example 108, 7-chloro-3-(4-chlorobenzenesulfonyl)-1-phenacyl-2,4(1H,3H)-quinazolinedione], the pIC50 on human heart chymase is 5.89.

At human heart chymase, `O=c1c2ccc(Cl)cc2n(COCc2ccccc2)c(=O)n1S(=O)(=O)c1ccc(Cl)cc1` [Example 109, 1-(benzyloxymethyl)-7-chloro-3-(4-chlorobenzenesulfonyl)-2,4(1H,3H)-quinazolinedione] had a pIC50 of 6.62.

Take `O=C(O)CCCOc1ccc(NC(=O)Cn2c(=O)n(S(=O)(=O)c3ccc(Cl)cc3)c(=O)c3ccc(Cl)cc32)cc1` [Example 111, [7-chloro-3-(4-chlorobenzenesulfonyl)-2,4(1H,3H)-quinazolinedion-1-yl]-N-(4-(3-carboxylpropyloxy)phenyl)acetamide]: at human heart chymase, the pIC50 was 6.89.

At human heart chymase, `O=c1c2ccc(Cl)cc2n(Cc2cccnc2)c(=O)n1S(=O)(=O)c1ccc(Cl)cc1` [Example 114, 7-chloro-3-(4-chlorobenzenesulfonyl)-1-(3-pyridylmethyl)-2,4(1H,3H)-quinazolinedione] showed a pIC50 of 7.34. This pIC50 lies 0.45 log units higher than the previous one.

In turn, `O=C(Cn1c(=O)n(S(=O)(=O)c2ccc(-c3cc[nH]n3)cc2)c(=O)c2ccc(Cl)cc21)Nc1cccnc1` [Example 121, {7-chloro-3-[4-(3-pyrazolyl)benzenesulfonyl]-2,4(1H,3H)-quinazolinedion-1-yl}-N-(3-pyridlyl)acetamide] had a negative-log IC50 (pIC50) against human heart chymase of 6.47.

Compound `O=C(Cn1c(=O)n(S(=O)(=O)c2cccnc2)c(=O)c2ccc(Cl)cc21)Nc1cccnc1` [Example 123, [7-chloro-3-(pyridine-3-sulfonyl)-2,4-(1H,3H)-quinazolinedion-1-yl]-N-(3-pyridyl)acetamide] showed a pIC50 against human heart chymase of 6.24.

Regarding `O=c1[nH]c2cc(Cl)ccc2c(=O)n1S(=O)(=O)c1ccc[nH]1` [Example 125, 7-chloro-3-(pyrrole-2-sulfonyl)-2,4(1H,3H)-quinazolinedione], the pIC50 against human heart chymase was 4.54.

`O=c1[nH]c2cc(Cl)ccc2c(=O)n1S(=O)(=O)c1ccc(Cl)cc1F` [Example 134, 7-chloro-3-(4-chloro-2-fluorobenzenesulfonyl)-2,4(1H,3H)-quinazolinedione] had a negative-log IC50 (pIC50) on human heart chymase of 5.74.

With `O=c1[nH]c2cc(Cl)ccc2c(=O)n1S(=O)(=O)c1ccc(C(F)(F)F)cc1` [Example 136, 7-chloro-3-(4-trifluoromethylbenzenesulfonyl)-2,4(1H,3H)-quinazolinedione], on human heart chymase, the pIC50 is 6.34.

`O=C(Cn1c(=O)n(S(=O)(=O)c2ccc(Cl)cc2)c(=O)c2ccc(Cl)cc21)Nc1ccc(Cl)cc1` [Example 140, [7-chloro-3-(4-chlorobenzenesulfonyl)-2,4(1H,3H)-quinazolinedion-1-yl]-N-(4-chlorophenyl)acetamide] showed a pIC50 on human heart chymase of 7.22. This pIC50 is 0.88 log units higher than that of the compound before.

`O=c1[nH]c2cc(Cl)ccc2c(=O)n1S(=O)(=O)c1ccc(OCCBr)cc1` [Example 145, 7-chloro-3-[4-(2-bromoethyloxy)benzenesulfonyl]-2,4(1H,3H)-quinazolinedione]: the pIC50 at human heart chymase was 5.82.

`CC(=O)c1ccc(S(=O)(=O)n2c(=O)[nH]c3cc(Cl)ccc3c2=O)cc1` [Example 149, 3-(4-acetylbenzenesulfonyl)-7-chloro-2,4(1H,3H)-quinazolinedione] had a pIC50 on human heart chymase of 6.24. Against the preceding compound, the pIC50 is 0.42 log units higher.

At human heart chymase, `O=c1[nH]c2cc(O)ccc2c(=O)n1S(=O)(=O)c1ccc(Cl)cc1` [Example 151] showed a negative-log IC50 (pIC50) of 5.55.
